From DBAASP
In brackets after ≈: the same amount, converted by molar mass.

Key:
Experiment in all cases: ≥ marks a high value that may be exact or a test limit, other limits are often not marked, values filed in µg/mL are converted to µM
[1] = tested on: Acinetobacter baumannii
[2] = tested on: Escherichia coli ATCC 25922
[3] = tested on: Klebsiella pneumoniae ATCC 700603
[4] = tested on: Pseudomonas aeruginosa ATCC 9027
[5] = tested on: Staphylococcus aureus ATCC 25923
[6] = tested on: Bacillus subtilis 168
[7] = tested on: Escherichia coli B
[8] = tested on: Pseudomonas aeruginosa
[9] = tested on: Staphylococcus aureus
[10] = tested on: Bacillus subtilis
[11] = tested on: Candida albicans ATCC 2002
[12] = tested on: Staphylococcus aureus ATCC 2592
[13] = tested on: Pseudomonas aeruginosa CMCCB 10104
[14] = tested on: Escherichia coli UB1005
[15] = tested on: Escherichia coli
[16] = tested on: Salmonella enterica subsp. enterica serovar Typhimurium C77-31
[17] = tested on: Staphylococcus aureus ATCC 29213
[18] = tested on: Staphylococcus epidermidis ATCC 12228

| Compound | MIC [2] [µM] | MIC [5] [µM] | MIC [11] [µM] | MIC [13] [µM] | further results |
| --- | --- | --- | --- | --- | --- |
| CC[C@H](C)[C@H](NC(=O)[C@H](Cc1ccccc1)NC(=O)[C@H](CO)NC(=O)[C@H](CCCCN)NC(=O)[C@H](CC(C)C)NC(=O)[C@H](CCCCN)NC(=O)[C@H](CCCCN)NC(=O)[C@H](CC(C)C)NC(=O)[C@@H](NC(=O)[C@@H](NC(=O)[C@@H](N)Cc1ccccc1)[C@@H](C)O)[C@@H](C)CC)C(=O)N[C@@H](CCCCN)C(=O)O [FTILKKLKSFIK] | > 64 | > 64 | – | – | MIC [1]: ≥ 64 µM; MIC [3]: > 64 µM; MIC [4]: 32 µM (≈ 46.9 µg/mL) |
| CC[C@H](C)[C@H](NC(=O)[C@H](CC(C)C)NC(=O)[C@H](CCCCN)NC(=O)CNC(=O)[C@H](CC(C)C)NC(=O)[C@@H](NC(=O)[C@H](CCCCN)NC(=O)[C@H](CO)NC(=O)[C@H](Cc1c[nH]c2ccccc12)NC(=O)[C@H](CCCCN)NC(=O)CN)[C@@H](C)CC)C(=O)N[C@@H](CCCN=C(N)N)C(N)=O [GKWSKILGKLIR] | – | – | – | – | MIC [6]: 1.7 µM (≈ 2.38 µg/mL); MIC [7]: 2.3 µM (≈ 3.21 µg/mL); MIC [8]: 28.3 µM (≈ 39.6 µg/mL); MIC [9]: 21.7 µM (≈ 30.3 µg/mL) |
| CC[C@H](C)[C@H](N)C(=O)N1CCC[C@H]1C(=O)N[C@@H](CC(C)C)C(=O)N[C@@H](CC(C)C)C(=O)N[C@@H](CCCN=C(N)N)C(=O)N[C@@H](CCCCN)C(=O)NCC(=O)N[C@@H](CCCCN)C(=O)N[C@@H](CCCCN)C(=O)N[C@H](C(=O)N[C@H](C(=O)N[C@@H](Cc1c[nH]c2ccccc12)C(=O)N[C@@H](Cc1c[nH]c2ccccc12)C(=O)O)[C@@H](C)CC)[C@@H](C)CC [IPLLRKGKKIIWW] | > 64 | > 64 | – | – | MIC [1]: ≥ 64 µM; MIC [3]: > 64 µM; MIC [4]: 64 µM (≈ 106 µg/mL) |
| CC[C@H](C)[C@H](NC(=O)[C@@H]1CCCN1C(=O)[C@@H](NC(=O)[C@@H](N)C(C)C)[C@@H](C)CC)C(=O)N[C@H](C(=O)N[C@@H](CO)C(=O)NCC(=O)N[C@@H](CC(C)C)C(=O)N[C@@H](CC(C)C)C(=O)N[C@@H](CO)C(=O)N[C@@H](CO)C(=O)N[C@@H](CC(C)C)C(=O)N[C@@H](CC(C)C)C(N)=O)C(C)C [VIPIVSGLLSSLL] | 9.54 (≈ 12.5 µg/mL) | – | – | – | MIC [12]: 4.77 µM (≈ 6.25 µg/mL) |
| CC[C@H](C)[C@H](NC(=O)[C@H](CCCCN)NC(=O)[C@H](CCCCN)NC(=O)[C@H](Cc1c[nH]c2ccccc12)NC(=O)[C@H](CC(N)=O)NC(=O)[C@@H](N)C(C)C)C(=O)N[C@@H](CC(C)C)C(=O)N1CCC[C@H]1C(=O)N[C@@H](CCCCN)C(=O)N[C@H](C(=O)N[C@H](C(=O)N[C@@H](CCCCN)C(=O)N[C@H](C(=O)N[C@@H](C)C(=O)N[C@@H](CCCCN)C(N)=O)C(C)C)[C@@H](C)CC)[C@@H](C)CC [VNWKKILPKIIKVAK] | – | – | – | – | MIC [6]: 0.7 µM (≈ 1.24 µg/mL); MIC [7]: 2.5 µM (≈ 4.44 µg/mL); MIC [8]: 100 µM (≈ 178 µg/mL); MIC [9]: 80 µM (≈ 142 µg/mL) |
| CC(C)[C@H](N)C(=O)N[C@H](C(=O)N[C@@H](CCCCN)C(=O)N[C@@H](Cc1ccccc1)C(=O)N[C@@H](CO)C(=O)N[C@@H](Cc1ccc(O)cc1)C(=O)N[C@@H](CCCN=C(N)N)C(=O)N[C@@H](CCCCN)C(=O)NCC(=O)N[C@@H](CO)C(=O)N1CCC[C@H]1C(=O)N[C@@H](C)C(=O)N1CCC[C@H]1C(=O)N[C@@H](CCC(N)=O)C(=O)N[C@@H](CCCCN)C(=O)N[C@@H](CC(N)=O)C(=O)O)C(C)C [VVKFSYRKGSPAPQKN] | > 111 | > 111 | ≥ 111 | ≥ 111 | – |
| CC[C@H](C)[C@H](NC(=O)[C@H](CCCN=C(N)N)NC(=O)[C@H](Cc1c[nH]c2ccccc12)NC(=O)[C@H](CCCN=C(N)N)NC(=O)[C@@H](NC(=O)[C@H](CCCCN)NC(=O)[C@H](Cc1c[nH]c2ccccc12)NC(=O)[C@H](CCCN=C(N)N)NC(=O)[C@@H](NC(=O)[C@H](CCCN=C(N)N)NC(=O)[C@@H](N)Cc1c[nH]c2ccccc12)[C@@H](C)CC)[C@@H](C)O)C(=O)N[C@@H](CCCCN)C(N)=O [WRIRWKTRWRIK] | 4 (≈ 7.14 µg/mL) | 2 (≈ 3.57 µg/mL) | – | – | MIC [1]: 2 µM (≈ 3.57 µg/mL); MIC [14]: 2 µM (≈ 3.57 µg/mL); MIC [15]: 2 µM (≈ 3.57 µg/mL); MIC [8]: 8 µM (≈ 14.3 µg/mL); MIC [16]: 2 µM (≈ 3.57 µg/mL); MIC [17]: 2 µM (≈ 3.57 µg/mL); MIC [9]: 2 µM (≈ 3.57 µg/mL); MIC [18]: 2 µM (≈ 3.57 µg/mL) |

Second part, led by results:

| MIC [2] [µM] | MIC [5] [µM] | MIC [11] [µM] | MIC [13] [µM] | Compound | further results |
| --- | --- | --- | --- | --- | --- |
| 1.98 (≈ 6.3 µg/mL) | – | 3.92 (≈ 12.5 µg/mL) | – | CC[C@H](C)[C@@H]1NC(=O)[C@H](CCCCN)NC(=O)[C@@H](NC(=O)[C@H](CCCCN)NC(=O)[C@H](CC(C)C)NC(=O)[C@@H](NC(=O)[C@H](CC(=O)O)NC(=O)[C@H](CC(C)C)NC(=O)[C@H](CC(C)C)NC(=O)[C@H](CCC(N)=O)NC(=O)CNC(=O)[C@H](C)NC(=O)[C@@H](NC(=O)[C@H](CCCCN)NC(=O)[C@H](CCCCN)NC(=O)[C@H](CC(C)C)NC(=O)CNC(=O)[C@H](CCC(=O)O)NC(=O)[C@H](CCCCN)NC(=O)[C@@H](NC(=O)[C@H](CO)NC(=O)[C@H](CC(=O)O)NC(=O)[C@H](CC(C)C)NC(=O)[C@H](CC(C)C)NC(=O)CN)C(C)C)C(C)C)[C@@H](C)O)CSSC[C@@H](C(=O)N[C@H](C(=O)N2CCC[C@H]2C(=O)N[C@@H](C)C(=O)O)[C@@H](C)O)NC(=O)CNC(=O)[C@H](CO)NC1=O [GLLDSVKEGLKKVAGQLLDTLKCKISGCTPA] | MIC [10]: 7.84 µM (≈ 25 µg/mL); MIC [12]: 1.98 µM (≈ 6.3 µg/mL) |
| 4.32 (≈ 11.1 µg/mL) | 8.64 (≈ 22.2 µg/mL) | 4.32 (≈ 11.1 µg/mL) | 8.64 (≈ 22.2 µg/mL) | CC[C@H](C)[C@H](N)C(=O)N[C@H](C(=O)N1CCC[C@H]1C(=O)N[C@@H](Cc1ccccc1)C(=O)N[C@H](C(=O)N[C@@H](C)C(=O)NCC(=O)N[C@H](C(=O)N[C@@H](C)C(=O)N[C@@H](C)C(=O)N[C@@H](CCC(=O)O)C(=O)N[C@@H](CCSC)C(=O)N[C@@H](CCSC)C(=O)N[C@@H](CCC(=O)O)C(=O)N[C@@H](Cc1cnc[nH]1)C(=O)N[C@H](C(=O)N[C@@H](Cc1ccc(O)cc1)C(=O)N[C@H]1CSSC[C@@H](C(=O)O)NC(=O)[C@H](CCCCN)NC(=O)[C@H](CCCCN)NC(=O)[C@H](CO)NC(=O)[C@H](C)NC(=O)[C@H](C)NC1=O)C(C)C)C(C)C)C(C)C)[C@@H](C)CC [IIPFVAGVAAEMMEHVYCAASKKC] | – |
| 5.92 (≈ 15.2 µg/mL) | 5.92 (≈ 15.2 µg/mL) | 2.96 (≈ 7.59 µg/mL) | 11.8 (≈ 30.4 µg/mL) | CC[C@H](C)[C@H](N)C(=O)N[C@@H](CC(C)C)C(=O)N1CCC[C@H]1C(=O)N[C@@H](Cc1ccccc1)C(=O)N[C@H](C(=O)N[C@@H](C)C(=O)NCC(=O)N[C@H](C(=O)N[C@@H](C)C(=O)N[C@@H](C)C(=O)N[C@@H](CCC(=O)O)C(=O)N[C@@H](CCSC)C(=O)N[C@@H](CCSC)C(=O)N[C@@H](CCCCN)C(=O)N[C@@H](Cc1cnc[nH]1)C(=O)N[C@H](C(=O)N[C@@H](Cc1ccc(O)cc1)C(=O)N[C@H]1CSSC[C@@H](C(=O)O)NC(=O)[C@H](CCCCN)NC(=O)[C@H](CCCCN)NC(=O)[C@H](CO)NC(=O)[C@H](C)NC(=O)[C@H](C)NC1=O)C(C)C)C(C)C)C(C)C [ILPFVAGVAAEMMKHVYCAASKKC] | – |
| > 82.4 | > 82.4 | ≥ 82.4 | ≥ 82.4 | CC(C)C[C@@H]1NC(=O)[C@H](CCCCN)NC(=O)[C@H](CC(=O)O)NC(=O)[C@H](CC(N)=O)NC(=O)[C@H](Cc2ccc(O)cc2)NC(=O)[C@@H](NC(=O)[C@H](CCCCN)NC(=O)[C@@H]2CCCN2C(=O)[C@H](C)NC(=O)[C@H](CCCCN)NC(=O)[C@H](CS)NC(=O)[C@H](CCCCN)NC(=O)[C@H](CC(C)C)NC(=O)[C@H](CCCCN)NC(=O)[C@H](CC(C)C)NC(=O)[C@H](CCCCN)NC(=O)[C@H](CCC(=O)O)NC(=O)[C@@H](N)CCCCN)CSSC[C@@H](C(=O)N[C@H](C(=O)O)[C@@H](C)O)NC(=O)[C@H](C)NC1=O [KEKLKLKCKAPKCYNDKLACT] | – |
| 41 (≈ 120 µg/mL) | – | 20.5 (≈ 60 µg/mL) | – | CC[C@H](C)[C@H](NC(=O)[C@H](CCC(N)=O)NC(=O)[C@H](CCCCN)NC(=O)CNC(=O)[C@H](CC(C)C)NC(=O)[C@H](CCC(N)=O)NC(=O)[C@@H]1CCCN1C(=O)[C@H](CC(C)C)NC(=O)[C@H](CCCCN)NC(=O)[C@H](C)NC(=O)[C@H](CCC(=O)O)NC(=O)[C@H](CCCCN)NC(=O)[C@@H](NC(=O)[C@H](CCSC)NC(=O)[C@@H](NC(=O)[C@@H](NC(=O)[C@@H](NC(=O)[C@@H](N)CO)[C@@H](C)CC)[C@@H](C)CC)[C@@H](C)O)[C@@H](C)O)C(=O)N[C@@H](C)C(=O)N[C@H]1CSSC[C@@H](C(=O)O)NC(=O)[C@H]([C@@H](C)O)NC(=O)[C@H](CC(N)=O)NC(=O)[C@H](Cc2ccc(O)cc2)NC(=O)[C@H](CC(C)C)NC(=O)[C@H](CCCN=C(N)N)NC1=O [SIITMTKEAKLPQLGKQIACRLYNTC] | MIC [10]: ≥ 41 µM; MIC [12]: 10.3 µM (≈ 30 µg/mL) |
